Consider eight compounds from ChEMBL document CHEMBL3259645, “Design and synthesis of spirocyclic compounds as HCV replication inhibitors by targeting viral NS4B protein” (Bioorg Med Chem Lett, 2014).

Some results are limits rather than exact numbers.

The first series has as its system Hepatitis C virus. The series can be described thus: Antiviral activity against Hepatitis C virus genotype 1b infected in human HuH7 cells assessed as inhibition of replicon replication after 48 hrs by luciferase reporter gene assay. Format: functional, cell-based, Hepacivirus hominis. Particulars: Huh-7, 48 h. Background: A replicon is a self-replicating genome or part of one, used to study replication in cells.
The EC50 is the concentration that produces a half-maximal response. With `O=C(c1nn2c(C(F)(F)F)cc(C3CC3)cc2c1Cl)N1CCC2(CC1)OCCO2`, the EC50 amounted to 161 nM.

As for `O=C(c1nn2c(C(F)(F)F)cc(C3CC3)cc2c1Cl)N1CCC2(CC1)OCCCO2`, the concentration for a half-maximal effect (EC50) was determined as 6.1 nM.

With `O=C(c1nn2c(C(F)(F)F)cc(C3CC3)cc2c1Cl)N1CCC2(CC1)OCCCCO2`, the concentration giving a half-maximal response (EC50) was 8 nM.

As to `CC1COC2(CCN(C(=O)c3nn4c(C(F)(F)F)cc(C5CC5)cc4c3Cl)CC2)OC1`, the 50% effective concentration (EC50) came to 1.2 nM.

Turning to `CC1(C)COC2(CCN(C(=O)c3nn4c(C(F)(F)F)cc(C5CC5)cc4c3Cl)CC2)OC1`, the concentration for a half-maximal effect (EC50) amounted to 9.8 nM.

For the compound `O=C(c1nn2c(C(F)(F)F)cc(C3CC3)cc2c1Cl)N1CCC2(CC1)OCC(c1ccccc1)CO2`, the EC50 stood at 209 nM.

As for `O=C(c1nn2c(C(F)(F)F)cc(C3CC3)cc2c1Cl)N1CCC2(CC1)OCC(O)CO2`, the EC50 is 13.8 nM.

With `O=C1COC2(CCN(C(=O)c3nn4c(C(F)(F)F)cc(C5CC5)cc4c3Cl)CC2)OC1`, the EC50 was found to be 19.1 nM.

Test system in the next series: not listed separately
The series can be described thus: Cytotoxicity against human HuH7 cells infected with Hepatitis C virus genotype 1b.
Settings: not given
Format: cell-based, Huh-7.
For orientation: CC50 means the concentration at which the toxic effect on the cells reaches its halfway point. High values mean better tolerance by the cells, low ones harm at low concentration. `O=C(c1nn2c(C(F)(F)F)cc(C3CC3)cc2c1Cl)N1CCC2(CC1)OCCO2`: the CC50 was more than 50 µM.

In the case of `O=C(c1nn2c(C(F)(F)F)cc(C3CC3)cc2c1Cl)N1CCC2(CC1)OCCCO2`, the CC50 is more than 50 µM.

On to `O=C(c1nn2c(C(F)(F)F)cc(C3CC3)cc2c1Cl)N1CCC2(CC1)OCCCCO2`, for which the CC50 is more than 25 µM.

As for `CC1COC2(CCN(C(=O)c3nn4c(C(F)(F)F)cc(C5CC5)cc4c3Cl)CC2)OC1`, the CC50 is more than 50 µM.

In the case of `CC1(C)COC2(CCN(C(=O)c3nn4c(C(F)(F)F)cc(C5CC5)cc4c3Cl)CC2)OC1`, the half-maximal cytotoxic concentration (CC50) was more than 25 µM.

For the compound `O=C(c1nn2c(C(F)(F)F)cc(C3CC3)cc2c1Cl)N1CCC2(CC1)OCC(c1ccccc1)CO2`, the cytotoxic concentration (CC50) is more than 50 µM.

`O=C(c1nn2c(C(F)(F)F)cc(C3CC3)cc2c1Cl)N1CCC2(CC1)OCC(O)CO2` had a CC50 of more than 50 µM.

`O=C1COC2(CCN(C(=O)c3nn4c(C(F)(F)F)cc(C5CC5)cc4c3Cl)CC2)OC1` showed a CC50 of more than 50 µM.

The test system of a further series is Hepatitis C virus. The series can be described thus: Antiviral activity against Hepatitis C virus genotype 1a infected in human HuH7 cells assessed as inhibition of replicon replication after 48 hrs by luciferase reporter gene assay. Format: functional, cell-based, Hepacivirus hominis. Particulars: subtype 1a, Huh-7, 48 h.
Take `O=C(c1nn2c(C(F)(F)F)cc(C3CC3)cc2c1Cl)N1CCC2(CC1)OCCO2`: the concentration for a half-maximal effect (EC50) was 299 nM.

As for `O=C(c1nn2c(C(F)(F)F)cc(C3CC3)cc2c1Cl)N1CCC2(CC1)OCCCO2`, the EC50 was determined as 33.8 nM.

In the case of `O=C(c1nn2c(C(F)(F)F)cc(C3CC3)cc2c1Cl)N1CCC2(CC1)OCCCCO2`, the EC50 amounted to 46.3 nM.

With `CC1COC2(CCN(C(=O)c3nn4c(C(F)(F)F)cc(C5CC5)cc4c3Cl)CC2)OC1`, the half-maximal effective concentration (EC50) was found to be 7.4 nM.

In the case of `CC1(C)COC2(CCN(C(=O)c3nn4c(C(F)(F)F)cc(C5CC5)cc4c3Cl)CC2)OC1`, the EC50 is 23.8 nM.

In the case of `O=C(c1nn2c(C(F)(F)F)cc(C3CC3)cc2c1Cl)N1CCC2(CC1)OCC(c1ccccc1)CO2`, the EC50 came out at 42.2 nM.

As for `O=C(c1nn2c(C(F)(F)F)cc(C3CC3)cc2c1Cl)N1CCC2(CC1)OCC(O)CO2`, the 50% effective concentration (EC50) came to 19.5 nM.

With `O=C1COC2(CCN(C(=O)c3nn4c(C(F)(F)F)cc(C5CC5)cc4c3Cl)CC2)OC1`, the concentration giving a half-maximal response (EC50) is 18 nM.
